Measurements from PubChem BioAssay AID248 (DTP/NCI, 2004).
Where “and” joins values, the source holds several entries; their conditions need not be identical. Identical values can stand only once. Inconclusive results and toxic doses are left out. No stated cut-off is given here; in the data, active means T/C of 150% or more; inactive means T/C below 125%.

System: L1210 leukemia ip in BDF1 mice, survival T/C
Test: NCI In Vivo Anticancer Drug Screen. Data for tumor model L1210 Leukemia (intraperitoneal) in B6D2F1 (BDF1) mice
Settings: endpoint: mean survival time, higher = longer survival
Method in brief: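 Each compound was tested against a transplantable tumor grown in mice. The endpoint was survival, with treated animals benchmarked against vehicle controls as a simple ratio.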

[1] = dose: 100.0 mg/kg/injection, schedule: Q01DX001 (ip), vehicle: Klucel (hydroxypropylcellulose) (HPC)
[2] = dose: 100.0 mg/kg/injection, schedule: Q01DX009 (ip), vehicle: Klucel (hydroxypropylcellulose) (HPC)
[3] = dose: 100.0 mg/kg/injection, schedule: Q04DX003 (ip), vehicle: Klucel (hydroxypropylcellulose) (HPC)
[4] = dose: 200.0 mg/kg/injection, schedule: Q01DX001 (ip), vehicle: Klucel (hydroxypropylcellulose) (HPC)
[5] = dose: 200.0 mg/kg/injection, schedule: Q01DX009 (ip), vehicle: Klucel (hydroxypropylcellulose) (HPC)
[6] = dose: 200.0 mg/kg/injection, schedule: Q04DX003 (ip), vehicle: Klucel (hydroxypropylcellulose) (HPC)
[7] = dose: 400.0 mg/kg/injection, schedule: Q01DX009 (ip), vehicle: Klucel (hydroxypropylcellulose) (HPC)
[8] = dose: 400.0 mg/kg/injection, schedule: Q04DX003 (ip), vehicle: Klucel (hydroxypropylcellulose) (HPC)
[9] = dose: 100.0 mg/kg/injection, schedule: Q01DX009 (ip), vehicle: saline with Tween-80
[10] = dose: 100.0 mg/kg/injection, schedule: Q04DX003 (ip), vehicle: saline with Tween-80
[11] = dose: 200.0 mg/kg/injection, schedule: Q01DX009 (ip), vehicle: saline with Tween-80
[12] = dose: 200.0 mg/kg/injection, schedule: Q04DX003 (ip), vehicle: saline with Tween-80
[13] = dose: 400.0 mg/kg/injection, schedule: Q01DX009 (ip), vehicle: saline with Tween-80
[14] = dose: 400.0 mg/kg/injection, schedule: Q04DX003 (ip), vehicle: saline with Tween-80
[15] = dose: 100.0 mg/kg/injection, schedule: Q04DX002 (ip), vehicle: saline with Tween-80
[16] = dose: 50.0 mg/kg/injection, schedule: Q01DX009 (ip), vehicle: Klucel (hydroxypropylcellulose) (HPC)
[17] = dose: 100.0 mg/kg/injection, schedule: Q01DX001 (ip), vehicle: saline with Tween-80
[18] = dose: 200.0 mg/kg/injection, schedule: Q01DX001 (ip), vehicle: saline with Tween-80
[19] = dose: 200.0 mg/kg/injection, schedule: Q04DX002 (ip), vehicle: saline with Tween-80
[20] = dose: 400.0 mg/kg/injection, schedule: Q01DX001 (ip), vehicle: saline with Tween-80
[21] = dose: 400.0 mg/kg/injection, schedule: Q04DX002 (ip), vehicle: saline with Tween-80

Measured: T/C

Clc1cccc(/C=C2\c3cc(Cl)ccc3-c3c(Cl)cc(Cl)cc32)c1
inactive: [1] 96 % of control | [2] 106 % of control | [3] 97 % of control | [4] 93 % of control | [5] 98 % of control | [6] 101 % of control | dose: 400.0 mg/kg/injection, schedule: Q01DX001 (ip), vehicle: Klucel (hydroxypropylcellulose) (HPC) 93 % of control | [7] 98 % of control | [8] 101 % of control

CCCCCCCCCCCCCC(=O)CCC
inactive: [9] 106 % of control | [10] 86 % of control | [11] 100 % of control | [12] 110 % of control | [13] 104 % of control | [14] 100 % of control

O=C(O)/C=C/c1cc2c(cc1[N+](=O)[O-])OCO2
inactive: [2] 98 % of control | [3] 86 % of control | [5] 93 % of control | [6] 95 % of control | [7] 88 % of control | [8] 100 % of control

COc1c(C(C)(C)C)cc(/C=C(\NC(=O)c2ccccc2)C(=O)O)cc1C(C)(C)C
inactive: [1] 98 % of control | [4] 92 % of control

Nc1ncnc2oc(-c3ccccc3)c(-c3ccccc3)c12
inactive: dose: 50.0 mg/kg/injection, schedule: Q04DX002 (ip), vehicle: saline with Tween-80 91 % of control | [15] 88 % of control

N=C1SCc2ccc3ccccc3c21
inactive: dose: 100.0 mg/kg/injection, schedule: Q01DX001 (ip), vehicle: other 92 % of control | dose: 200.0 mg/kg/injection, schedule: Q01DX001 (ip), vehicle: other 108 % of control | dose: 400.0 mg/kg/injection, schedule: Q01DX001 (ip), vehicle: other 97 % of control

CCOC(=O)OC1C(OC)OC2COC(c3ccccc3)OC2C1OC(=O)OCC (stereo not given)
inactive: dose: 100.0 mg/kg/injection, schedule: Q04DX002 (ip), vehicle: other 103 % of control | dose: 200.0 mg/kg/injection, schedule: Q04DX002 (ip), vehicle: other 97 % of control | dose: 400.0 mg/kg/injection, schedule: Q04DX002 (ip), vehicle: other 100 % of control

C=C(Br)CSC#N
inactive: dose: 12.5 mg/kg/injection, schedule: Q01DX009 (ip), vehicle: saline with Tween-80 93 % of control | dose: 25.0 mg/kg/injection, schedule: Q01DX009 (ip), vehicle: saline with Tween-80 102 % of control | dose: 50.0 mg/kg/injection, schedule: Q01DX009 (ip), vehicle: saline with Tween-80 89 % of control

CC(=O)Nn1cnc2ccccc2c1=O
inactive: [16] 98 % of control | [2] 98 % of control | [5] 98 % of control

CCOc1c(Br)cc(Br)cc1C=O
inactive: [9] 97 % of control | [10] 103 % of control | [11] 94 % of control | [12] 109 % of control | [13] 110 % of control | [14] 103 % of control

CC1(CO)COC(c2ccccc2)=N1 (stereo not given)
inactive: dose: 100.0 mg/kg/injection, schedule: Q01DX009 (ip), vehicle: other 109 % of control | dose: 200.0 mg/kg/injection, schedule: Q01DX009 (ip), vehicle: other 103 % of control | dose: 400.0 mg/kg/injection, schedule: Q01DX009 (ip), vehicle: other 109 % of control

O=C(C[n+]1ccccc1)N/N=C/c1ccc([N+](=O)[O-])s1
inactive: dose: 12.5 mg/kg/injection, schedule: Q01DX009 (ip), vehicle: water 96 % of control | dose: 25.0 mg/kg/injection, schedule: Q01DX009 (ip), vehicle: water 101 % of control

CCC(C(=O)NNC(=O)c1cc(OC)c(OC)c(OC)c1)c1ccccc1 (stereo not given)
inactive: [17] 96 % of control | [15] 97 % of control and 101 % of control | [10] 100 % of control and 90 % of control | [18] 98 % of control | [19] 97 % of control and 98 % of control | [12] 93 % of control and 104 % of control | [20] 93 % of control | [21] 101 % of control and 90 % of control | [14] 92 % of control and 93 % of control

Cc1cc(Cl)cc(CN(C)Cc2c(C)[nH]c(=O)[nH]c2=O)c1O
inactive: dose: 100.0 mg/kg/injection, schedule: Q01DX001 (ip), vehicle: carboxymethylcellulose (CMC) 97 % of control | dose: 200.0 mg/kg/injection, schedule: Q01DX001 (ip), vehicle: carboxymethylcellulose (CMC) 94 % of control | dose: 400.0 mg/kg/injection, schedule: Q01DX001 (ip), vehicle: carboxymethylcellulose (CMC) 97 % of control

CCCCCCCCCCCCCCCCN(C)/C(=N\NS(=O)(=O)c1cccc([N+](=O)[O-])c1)c1ccc(OC)c(OC)c1
inactive: [3] 93 % of control | [6] 95 % of control | [8] 93 % of control

CN1C=CC(C(C(N)=O)c2ccccc2)c2ccccc21 (stereo not given)
inactive: [9] 95 % of control | [11] 92 % of control | [13] 92 % of control

C=CCC(=O)O
inactive: dose: 83.0 mg/kg/injection, schedule: Q01DX Z (ip), vehicle: saline 96 % of control | dose: 125.0 mg/kg/injection, schedule: Q01DX Z (ip), vehicle: saline 90 % of control

CCCCOc1ccc(OC(=O)Nc2cccc(C(F)(F)F)c2)cc1
inactive: [9] 96 % of control | [11] 94 % of control | [13] 94 % of control

CC(C)(C)OC(=O)C(CSSCC(NC(=O)OCc1ccccc1)C(=O)OC(C)(C)C)NC(=O)OCc1ccccc1 (stereo not given)
inactive: [2] 98 % of control | [3] 98 % of control | [5] 107 % of control | [6] 96 % of control | [7] 107 % of control | [8] 96 % of control

CCCCSc1cc(C)nc(SCCCC)n1
inactive: [16] 101 % of control | [2] 101 % of control | [5] 101 % of control

CCOC(=O)/C(C)=N/O
inactive: [15] 96 % of control | [19] 116 % of control | [21] 104 % of control

O=C1C=CC(=O)C(SCC(O)CO)=C1 (stereo not given)
inactive: dose: 9.5 mg/kg/injection, schedule: Q01DX001 (ip), vehicle: other 94 % of control | dose: 19.0 mg/kg/injection, schedule: Q01DX001 (ip), vehicle: other 95 % of control | dose: 38.0 mg/kg/injection, schedule: Q01DX001 (ip), vehicle: other 100 % of control

O=C(Nc1ccc(Cl)c([N+](=O)[O-])c1)Oc1ccccc1F
inactive: [2] 92 % of control | [3] 97 % of control | [5] 101 % of control | [6] 97 % of control | [8] 96 % of control

O=[N+]([O-])c1ccc(OCc2ccc(S(=O)(=O)F)cc2Cl)c(Cl)c1
inactive: dose: 100.0 mg/kg/injection, schedule: Q04DX003 (ip), vehicle: gum acacia 98 % of control | dose: 200.0 mg/kg/injection, schedule: Q04DX003 (ip), vehicle: gum acacia 95 % of control | dose: 400.0 mg/kg/injection, schedule: Q04DX003 (ip), vehicle: gum acacia 97 % of control

CN=C(Nc1ccccn1)c1ccc(NC(=O)c2ccc(C(=O)Nc3ccc(C(=NC)Nc4ccccn4)cc3)cc2)cc1
inactive: dose: 1.87 mg/kg/injection, schedule: Q01DX015 (ip), vehicle: methylcellulose (MC) 95 % of control | dose: 3.75 mg/kg/injection, schedule: Q01DX015 (ip), vehicle: methylcellulose (MC) 96 % of control | dose: 7.5 mg/kg/injection, schedule: Q01DX015 (ip), vehicle: methylcellulose (MC) 108 % of control | dose: 15.0 mg/kg/injection, schedule: Q01DX015 (ip), vehicle: methylcellulose (MC) 101 % of control

COc1ccc(/C(=N\N=C(N)N)C2CC2)cc1
inactive: dose: 120.0 mg/kg/injection, schedule: Q01DX Z (oral), vehicle: carboxymethylcellulose (CMC) 90 % of control

O=C1OC(c2ccccc2)=C/C1=C\c1[nH]c(=S)[nH]c(=O)c1Cc1ccc(Cl)cc1
inactive: [17] 102 % of control | [18] 89 % of control | [20] 90 % of control

CCOC(=O)C1C(=O)CC(=O)C(C(=O)OCC)C1c1ccc(OC)c(OC)c1OC (stereo not given)
inactive: dose: 100.0 mg/kg/injection, schedule: Q04DX002 (ip), vehicle: Klucel (hydroxypropylcellulose) (HPC) 103 % of control | dose: 200.0 mg/kg/injection, schedule: Q04DX002 (ip), vehicle: Klucel (hydroxypropylcellulose) (HPC) 101 % of control | dose: 400.0 mg/kg/injection, schedule: Q04DX002 (ip), vehicle: Klucel (hydroxypropylcellulose) (HPC) 113 % of control
